Reference: PMC2375326, “In vitro evaluation of amino acid prodrugs of novel antitumour 2-(4-amino-3-methylphenyl)benzothiazoles” (British Journal of Cancer, 2002)

Columns and labels:
Format in all cases: cell-based
786-0 = assay: NCI in vitro cytotoxicity assay (SRB), 786-0; settings: Homo sapiens, 48 h exposure, sulforhodamine B assay, mean graph, read-out: Log10 GI50 (786-0) (converted)
Procedure: (§1) Cell culture and drug application procedures have been described previously ([Boyd and Paull, 1995]). Briefly, cell lines were inoculated into a series of 96-well microtiter plates, with varied seeding densities depending on growth characteristics of each cell line. Following a 24 h drug free incubation, test agents were added at five 10-fold dilutions with a maximum concentration of 100 μM. Cellular protein levels were determined after 48 h drug exposure by sulphorhodamine B colorimetry.

HCT-116 = assay: NCI in vitro cytotoxicity assay (SRB), HCT-116; settings: Homo sapiens, 48 h exposure, sulforhodamine B assay, mean graph, read-out: Log10 GI50 (HCT-116) (converted)
Procedure: as §1

MDA-MB-231/ATCC = assay: NCI in vitro cytotoxicity assay (SRB), MDA-MB-231/ATCC; settings: Homo sapiens, 48 h exposure, sulforhodamine B assay, mean graph, read-out: Log10 GI50 (MDA-MB-231/ATCC) (converted)
Procedure: as §1

SW-620 = assay: NCI in vitro cytotoxicity assay (SRB), SW-620; settings: Homo sapiens, 48 h exposure, sulforhodamine B assay, mean graph, read-out: Log10 GI50 (SW-620) (converted)
Procedure: as §1

UACC-62 = assay: NCI in vitro cytotoxicity assay (SRB), UACC-62; settings: Homo sapiens, 48 h exposure, sulforhodamine B assay, mean graph, read-out: Log10 GI50 (UACC-62) (converted)
Procedure: as §1

U251 = assay: NCI in vitro cytotoxicity assay (SRB), U251; settings: Homo sapiens, U-251; 48 h exposure, sulforhodamine B assay, mean graph; read-out: Log10 GI50 (U251) (converted)
Procedure: as §1

NCI-H322M = assay: NCI in vitro cytotoxicity assay (SRB), NCI-H322M; settings: Homo sapiens, 48 h exposure, sulforhodamine B assay, mean graph, read-out: Log10 GI50 (NCI-H322M) (converted)
Procedure: as §1

UO 31 = assay: NCI in vitro cytotoxicity assay (SRB), UO 31; settings: Homo sapiens, 48 h exposure, sulforhodamine B assay, mean graph, read-out: Log10 GI50 (UO 31) (converted)
Procedure: as §1

TK-10 = assay: NCI in vitro cytotoxicity assay (SRB), TK-10; settings: Homo sapiens, 48 h exposure, sulforhodamine B assay, mean graph, read-out: Log10 GI50 (TK-10) (converted)
Procedure: as §1

MOLT-4 = assay: NCI in vitro cytotoxicity assay (SRB), MOLT-4; settings: Homo sapiens, 48 h exposure, sulforhodamine B assay, mean graph, read-out: Log10 GI50 (MOLT-4) (converted)
Procedure: as §1

A549/ATCC = assay: NCI in vitro cytotoxicity assay (SRB), A549/ATCC; settings: Homo sapiens, 48 h exposure, sulforhodamine B assay, mean graph, read-out: Log10 GI50 (A549/ATCC) (converted)
Procedure: as §1

NCI/ADR-RES = assay: NCI in vitro cytotoxicity assay (SRB), NCI/ADR-RES; settings: Homo sapiens, 48 h exposure, sulforhodamine B assay, mean graph, read-out: Log10 GI50 (NCI/ADR-RES) (converted)
Procedure: as §1

SK-MEL-28 = assay: NCI in vitro cytotoxicity assay (SRB), SK-MEL-28; settings: Homo sapiens, 48 h exposure, sulforhodamine B assay, mean graph, read-out: Log10 GI50 (SK-MEL-28) (converted)
Procedure: as §1

SNB-19 = assay: NCI in vitro cytotoxicity assay (SRB), SNB-19; settings: Homo sapiens, 48 h exposure, sulforhodamine B assay, mean graph, read-out: Log10 GI50 (SNB-19) (converted)
Procedure: as §1

SNB-75 = assay: NCI in vitro cytotoxicity assay (SRB), SNB-75; settings: Homo sapiens, 48 h exposure, sulforhodamine B assay, mean graph, read-out: Log10 GI50 (SNB-75) (converted)
Procedure: as §1

HCT-15 = assay: NCI in vitro cytotoxicity assay (SRB), HCT-15; settings: Homo sapiens, 48 h exposure, sulforhodamine B assay, mean graph, read-out: Log10 GI50 (HCT-15) (converted)
Procedure: as §1

HOP-92 = assay: NCI in vitro cytotoxicity assay (SRB), HOP-92; settings: Homo sapiens, 48 h exposure, sulforhodamine B assay, mean graph, read-out: Log10 GI50 (HOP-92) (converted)
Procedure: as §1

NCI-H226 = assay: NCI in vitro cytotoxicity assay (SRB), NCI-H226; settings: Homo sapiens, 48 h exposure, sulforhodamine B assay, mean graph, read-out: Log10 GI50 (NCI-H226) (converted)
Procedure: as §1

UACC-257 = assay: NCI in vitro cytotoxicity assay (SRB), UACC-257; settings: Homo sapiens, 48 h exposure, sulforhodamine B assay, mean graph, read-out: Log10 GI50 (UACC-257) (converted)
Procedure: as §1

[1] = system: NCI in vitro panel of human derived cancer cell lines; assay: NCI in vitro cytotoxicity assay (SRB), whole panel mean graph; settings: average GI50 over the panel, 48 h exposure, sulforhodamine B assay, read-out: Log10 GI50 (MG_MID) (converted)
Procedure: as §1

[2] = system: MDA 468 (ER−) human derived breast carcinoma cells; assay: Growth inhibitory assay (MTT), MDA 468; settings: Breast carcinoma cell, ER− MDA 468, 3 days (72 h) treatment, n=8, representative mean, ^a = biphasic dose response
Procedure: Prodrugs were prepared as 10 mM top stocks, dissolved in dimethylsulphoxide (DMSO) or sterile ddH2O, and stored at 4°C, protected from light for a maximum period of 4 weeks. MCF-7 (ER+) and MDA 468 (ER−) human derived breast carcinoma cells, cultivated at 37°C in an atmosphere of 5% CO2 in RPMI 1640 medium supplemented with 2 mM L-glutamine and 10% foetal calf serum, were routinely subcultured twice weekly to maintain continuous logarithmic growth. Cells were seeded into 96-well microtiter plates at a density of 5×10^3 per well and allowed 24 h to adhere before drugs were introduced (final concentration 0.1 nM–100 μM, n=8). Serial drug dilutions were prepared in medium immediately prior to each assay. Viable cell masses at the time of drug addition (time-zero), and following 72 h drug exposure were determined by cell-mediated 3-(4,5-dimethylthiazol-2-yl)-2,5-diphenyltetrazolium bromide (MTT) reduction. MTT was added to each well (final concentration 400 μg ml^−1) and plates were incubated at 37°C for 4 h to allow reduction of MTT by viable cell dehydrogenases to an insoluble formazan product. Well supernatants were aspirated and cellular formazan solubilised by addition of DMSO : glycine buffer (pH 10.5) (4 : 1). Cell growth as well as drug activity were determined by measuring absorbance at 550 nm using an Anthos Labtec systems plate reader.

SF-268 = assay: NCI in vitro cytotoxicity assay (SRB), SF-268; settings: Homo sapiens, 48 h exposure, sulforhodamine B assay, mean graph, read-out: Log10 GI50 (SF-268) (converted)
Procedure: as §1

Row | SMILES | GI50 (786-0) | GI50 (HCT-116) | GI50 (MDA-MB-231/ATCC) | GI50 (SW-620) | GI50 (UACC-62) | GI50 (U251) | GI50 (NCI-H322M) | GI50 (UO 31) | GI50 (TK-10) | GI50 (MOLT-4) | GI50 (A549/ATCC) | GI50 (NCI/ADR-RES) | GI50 (SK-MEL-28) | GI50 (SNB-19) | GI50 (SNB-75) | GI50 (HCT-15) | GI50 (HOP-92) | GI50 (NCI-H226) | GI50 (UACC-257) | GI50 [1] | other results
1 | Cc1cc(-c2nc3cc(F)ccc3s2)ccc1N [Compound 2, 2-(4-Amino-3-methylphenyl)-5-fluorobenzothiazole] | 24 µM | 15.8 µM | 17.4 µM | > 100 µM | 57.5 µM | 41.7 µM | 11 µM | 85.1 µM | < 0.01 µM | > 100 µM | 6.92 µM | 66.1 µM | > 100 µM | 26.3 µM | 17 µM | 7.94 µM | 36.3 µM | < 0.01 µM | 77.6 µM | 11 µM | GI50 [2]: < 0.0001 µM; GI50 (SF-268): 58.9 µM
2 | Cc1cc(-c2nc3cc(F)ccc3s2)ccc1NC(=O)[C@@H](N)CCCCN [Compound 2b] | 4.07 µM | 2.88 µM | 3.55 µM | 3.63 µM | 14.1 µM | 2.14 µM | 3.09 µM | 3.09 µM | 0.0174 µM | 1 µM | 1.7 µM | 15.1 µM | 22.4 µM | 13.5 µM | 1.62 µM | 5.25 µM | 15.1 µM | 0.155 µM | 15.8 µM | 2.51 µM | GI50 [2]: 0.0577 µM; GI50 (SF-268): 6.76 µM
